These results are taken from US20110008409A1, “PHARMACEUTICAL PREPARATION CONTAINING A GESTAGEN, AND KIT AND METHOD FOR TREATING ENDOMETRIOSIS USING THE PREPARATION” (priority 2007, published 2011).

One data set has as its system ovulation. Conditions: daily dose; as set for the purposes of the invention; cited from earlier work.
Data set [1] has as its system women with laparoscopically diagnosed endometriosis. Particulars: in vivo. As for the experimental part:
(§1) The efficacy of each therapy was evaluated by means of, among other methods, a pain scale (visual analog scale, VAS) form filled out by the patient.

Data set [2] has the same test system. Conditions: in vivo. This is another data set of the same source.
Data set [3] shares this test system. Particulars: in vivo. On the procedure:
as §1
The effect of the two therapies on bone metabolism was studied in a subgroup of patients.
This is another data set of the same source.

Data set [4] shares this test system. Put plainly: Clinical study in endometriosis: pain scale (visual analog scale, VAS). The data set is classed as in vivo. Particulars: end of 6-month treatment; for pain reduction on visual analog scale (VAS) compared to the pain experienced at the beginning of therapy: DNG 2 mg/d orally, LA 3.75 mg s.c. every 4 weeks. On the procedure: as §1
The subject of data set [5] is subjects affected with endometriosis. Conditions: 2 mg of dienogest per day for 24 weeks; cited from earlier work.

Molecules are shown by their SMILES.

Turning to `CC(=O)O[C@]1(C(C)=O)CC[C@H]2[C@@H]3C=C(Cl)C4=CC(=O)CC[C@]4(C)[C@H]3CC[C@@]21C` [chiormadinone acetate, chlormadinone acetate], the ovulation-inhibiting dose in the data set on ovulation is 1.7 mg.

For `CCNC(=O)[C@@H]1CCCN1C(=O)[C@H](CCCNC(=N)N)NC(=O)[C@H](CC(C)C)NC(=O)[C@@H](CC(C)C)NC(=O)[C@H](Cc1ccc(O)cc1)NC(=O)[C@H](CO)NC(=O)[C@H](Cc1c[nH]c2ccccc12)NC(=O)[C@H](Cc1c[nH]cn1)NC(=O)[C@@H]1CCC(=O)N1` [LA, leuprorelin acetate], the “course of hot flash symptomatology during therapy” value in data set [1] was “increased”. Moreover, the “estrogen values, average value at the end of study” value in data set [2] amounted to 68.5 pmol/L. For the same compound, in data set [3], the “change of bone density compared to the beginning of the study” value is reported as −4.0% and the “laboratory parameters for determining bone metabolism” value was “increased bone resorption”. Further, the “pain reduction on visual analog scale (VAS) compared to the pain experienced at the beginning of therapy” value in data set [4] is reported as −46.0 mm.

Take `C[C@]12CCC3=C4CCC(=O)C=C4CC[C@H]3[C@@H]1CC[C@@]2(O)CC#N` [DNG, 17α-cyanomethyl-17-β-hydroxyestra-4,9-dien-3-one]: in data set [1], the “course of hot flash symptomatology during therapy” value is reported as “reduced”. Moreover, in data set [2], the “estrogen values, average value at the end of study” value amounted to 249.9 pmol/L. Also, the “change of bone density compared to the beginning of the study” value in data set [3] is “+0.25%”. Further, the “result of the treatment compared with Danazol or GnRH agonists” value in data set [5] is on record as “comparable”. In addition, the “statistical analysis of pain reduction versus comparator” value in data set [4] (DNG 2 mg/d orally vs LA 3.75 mg s.c. every 4 weeks) is reported as “not inferior to LA”. Moreover, the “pain reduction on visual analog scale (VAS) compared to the pain experienced at the beginning of therapy” value in data set [4] is −47.5 mm.

Turning to `CC(=O)O[C@]1(C(C)=O)CC[C@H]2[C@@H]3C=C(Cl)C4=CC(=O)[C@@H]5C[C@@H]5[C@]4(C)[C@H]3CC[C@@]21C` [cyproterone acetate], the ovulation-inhibiting dose with ovulation is listed as 1 mg.
